BindingDB's records for doi:10.1021/jm00007a018 (Laboratorios Menarini, 1995)
pIC50: −log10 of the molar value.

Target: Platelet-activating factor receptor (Oryctolagus cuniculus)
Test: […] was measured as the IC50 for aggregation of washed rabbit platelets after incubation for 30 min at 37 C.

| pIC50 | Compound |
| --- | --- |
| < 3.70 | CCCCCCCCCCCCCCCCC(=O)COCC(COP(=O)([O-])OCC[N+](C)(C)C)OC (centres undefined) [2-methoxy-3-(2-oxooctadecyloxy)propyl-2-trimethylammonioethylphosphorate] |
| < 3.70 | CCCCCCCCCCCC(CCCCCC)CCCCCCOCC(COP(=O)([O-])OCC[N+](C)(C)C)OC (centres undefined) [2-methoxy-3-(7-hexyloctadecyloxy)propyl-2-trimethylammonioethylphosphorate] |
| < 3.70 | CCCCCCCCCCCC(C)CCCCCCOCC(COP(=O)([O-])OCC[N+](C)(C)C)OC (centres undefined) [2-methoxy-3-(7-methyloctadecyloxy)propyl-2-trimethylammonioethylphosphorate] |
| < 3.70 | CCCCCCCCC(CCCCCCOCC(COP(=O)([O-])OCC[N+](C)(C)C)OC)c1ccccc1 (centres undefined) [2-methoxy-3-(7-phenylpentadecyloxy)propyl-2-trimethylammonioethylphosphorate] |
| 5.82 | CCCCCCC(CCCCCC)CCCCCCCCCCCOCC(COP(=O)([O-])OCC[N+](C)(C)C)OC (centres undefined) [3-(12-hexyloctadecyloxy)-2-methoxypropyl-2-trimethylammonioethylphosphorate] |

Further lines, the compound ahead of its results:

| Compound | pIC50 |
| --- | --- |
| COC(COCCCCCCCCCCC(=O)c1ccccc1)COP(=O)([O-])OCC[N+](C)(C)C (centres undefined) [2-methoxy-3-(11-oxo-11-phenylundecyloxy)propyl-2-trimethylammonioethylphosphorate] | < 3.70 |
| COC(COCCCCCCCCCCCCCCCCc1ccccc1)COP(=O)([O-])OCC[N+](C)(C)C (centres undefined) [2-methoxy-3-(16-phenylhexadecyloxy)propyl-2-trimethylammonioethylphosphorate] | 4.70 |
| COC(COCCCCCCCCCCC(O)c1ccccc1)COP(=O)([O-])OCC[N+](C)(C)C (centres undefined) [3-(11-hydroxy-11-phenylundecyloxy)-2-methoxypropyl-2-trimethylammonioethylphosphorate] | < 3.70 |
| CCCCCCCCCCCC(=O)CCCCCCOCC(COCCCCC[N+](C)(C)C)OC (centres undefined) [{5-[2-Methoxy-3-(7-oxo-octadecyloxy)-propoxy]-pentyl}-trimethyl-ammonium; bromide] | < 3.70 |
